Data from ChEMBL document CHEMBL1201862, “PubChem BioAssay data set” (2004).
The source made the active and inactive calls.

Tests used:
[1] = target: Potassium channel subfamily K member 9 (Homo sapiens, UniProt Q9NPC2); assay: TASK3 (KCNK9) channel inhibitors, thallium flux, SAR follow-up, selectivity assay for TASK1 inhibitor project, cell-based, FluxOR thallium flux, concentration-response (AID 652211); type: functional;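 also: potency is for inhibitors of the channel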
[2] = target: Potassium channel subfamily K member 3 (Homo sapiens, UniProt O14649); assay: TASK1 (KCNK3) potassium channel inhibitors, SAR follow-up, CHO cells, FluxOR thallium flux (AID 652212); type: functional
[3] = cytotoxicity dependent on PAX8, dose response, cell-based, plate reader, dry powder (AID 743049); type: functional
[4] = NIH:OVCAR-3 ovarian cancer cell cytotoxicity, dose response, PAX8 inhibitor project, plate reader, dry powder samples (AID 743044); type: functional, cell-based
Paired box protein Pax-8 = Paired box protein Pax-8 (Homo sapiens, UniProt Q06710); assay: inhibitors of PAX8-driven TPO luciferase reporter, dose response, RMG-I cells, cherry-pick (AID 687027); type: functional, cell-based;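 also: luciferase reporter driven by Pax8 target thyroperoxidase promoter measured by SteadyGlo luminescence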
[5] = cytotoxicity in OVCAR8 ovarian cancer cells, dose response, PAX8 project, cell-based, plate reader, dry powder samples (AID 743197); type: functional; conditions: OVCAR-8
[6] = cytotoxicity in COV362 ovarian cancer cells, dose response, cytotoxicity control for PAX8 inhibitor project, cell-based, plate reader, dry powder, SA12 (AID 743144); type: functional
[7] = cytotoxicity in OV-90 ovarian cancer cells, dose response, PAX8 inhibitor project, cell-based, plate reader, dry powder, SA8 (AID 743149); type: functional
[8] = IGROV1 ovarian cancer cell cytotoxicity, dose response, PAX8 inhibitor project, plate reader, dry powder samples (AID 743043); type: functional, cell-based; conditions: IGROV-1
[9] = PAX5 activity inhibitors, dose response, selectivity assay for PAX8 inhibitor project, cell-based, plate reader, dry powder samples (AID 743047); type: functional;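 also: HEK293 cells carrying a Pax5 driven CD19 promoter luciferase reporter; potency of inhibitors that lower reporter luminescence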
[10] = cytotoxicity in COV434 cells, dose response, cytotoxicity control for PAX8 inhibitor project, cell-based, plate reader, dry powder, SA7 (AID 743145); type: functional
[11] = cytotoxicity in OVCAR4 cells, dose response, cytotoxicity control for PAX8 inhibitor project, cell-based, plate reader, dry powder, SA11 (AID 743150); type: functional; conditions: OVCAR-4
[12] = PAX2 cell-based inhibition, dose response, selectivity assay for PAX8 inhibitor project, plate reader, dry powder samples (AID 743048); type: functional;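 also: HEK293 cells carrying a WT1 promoter luciferase reporter driven by expressed Pax2; potency is for inhibition of Pax2 driven reporter signal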
Major prion protein = Major prion protein (Homo sapiens, UniProt P04156); type: functional, cell-based
[13] = HEK293 cell cytotoxicity, dose response, cytotoxicity control, plate reader, cherry-picked samples (AID 743446); type: functional, cell-based
[14] = LGR2 antagonists, dose response, cell-based, HEK293, CRE-luciferase reporter, cherry pick, set 2 (AID 743343); type: functional;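 also: transfected cells were stimulated with diluted bursicon conditioned medium after compound addition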
[15] = MC4R antagonists, dose response, counter-screen for LGR2 antagonist project, cell-based, plate reader, cherry pick (AID 743444); type: functional;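 also: transfected HEK 293 cells stimulated with alpha-MSH peptide; potency of inhibitors of the alpha-MSH evoked signal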
[16] = A549 cell cytotoxicity, dose response, cytotoxicity control, plate reader, cherry-pick, antagonist series (AID 743412); type: functional, cell-based
[17] = HepG2 cell cytotoxicity, dose response, cytotoxicity control, plate reader, cherry-pick, antagonist series (AID 743416); type: functional, cell-based
[18] = target: G-protein coupled receptor 183 (Homo sapiens, UniProt P32249); assay: SAR confirmation of small molecule antagonists of the EBI2 receptor via a luminescent beta-arrestin assa.; type: functional
Kallikrein-7 = Kallikrein-7 (Homo sapiens, UniProt P49862); assay: Fluorescence Intensity-based biochemical primary high throughput dose response assay to identify activators of kallikrein-7 (K7) zymogen.
[19] = target: T1, DNA repair and recombination protein RAD54-like (Homo sapiens, UniProt Q92698); assay: inhibitors of human RAD54 branch migration, confirmation, biochemical, fluorescence, cherry-picked samples, dose series (AID 651657); type: functional
T1 sequence (Q92698 whole entry): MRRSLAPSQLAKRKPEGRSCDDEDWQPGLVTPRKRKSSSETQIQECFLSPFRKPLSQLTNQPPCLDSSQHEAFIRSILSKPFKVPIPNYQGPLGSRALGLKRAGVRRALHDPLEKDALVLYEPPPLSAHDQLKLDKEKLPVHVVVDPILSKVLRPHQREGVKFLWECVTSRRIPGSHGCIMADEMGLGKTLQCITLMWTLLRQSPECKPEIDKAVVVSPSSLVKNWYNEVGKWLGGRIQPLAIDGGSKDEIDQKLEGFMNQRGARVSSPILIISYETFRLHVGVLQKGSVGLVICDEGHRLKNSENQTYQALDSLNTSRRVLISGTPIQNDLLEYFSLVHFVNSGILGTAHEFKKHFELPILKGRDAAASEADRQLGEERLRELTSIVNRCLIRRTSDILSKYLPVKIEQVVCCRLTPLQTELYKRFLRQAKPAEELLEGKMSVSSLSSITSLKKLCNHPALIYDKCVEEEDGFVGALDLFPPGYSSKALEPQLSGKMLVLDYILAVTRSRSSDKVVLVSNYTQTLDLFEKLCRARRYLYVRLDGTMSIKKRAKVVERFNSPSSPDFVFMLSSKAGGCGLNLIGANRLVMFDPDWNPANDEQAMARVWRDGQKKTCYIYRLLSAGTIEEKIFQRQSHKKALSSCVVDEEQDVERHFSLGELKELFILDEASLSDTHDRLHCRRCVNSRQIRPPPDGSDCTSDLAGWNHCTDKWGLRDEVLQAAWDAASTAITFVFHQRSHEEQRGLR

Transthyretin = Transthyretin (Homo sapiens, UniProt P02766); assay: Luminescence-based cell-based high throughput dose response assay to identify activators of Transthyretin (TTR) transcription.; type: functional
[20] = target: T2, DNA repair protein RAD52 homolog (Homo sapiens, UniProt P43351); type: functional, biochemical
T2 sequence (P43351 whole entry): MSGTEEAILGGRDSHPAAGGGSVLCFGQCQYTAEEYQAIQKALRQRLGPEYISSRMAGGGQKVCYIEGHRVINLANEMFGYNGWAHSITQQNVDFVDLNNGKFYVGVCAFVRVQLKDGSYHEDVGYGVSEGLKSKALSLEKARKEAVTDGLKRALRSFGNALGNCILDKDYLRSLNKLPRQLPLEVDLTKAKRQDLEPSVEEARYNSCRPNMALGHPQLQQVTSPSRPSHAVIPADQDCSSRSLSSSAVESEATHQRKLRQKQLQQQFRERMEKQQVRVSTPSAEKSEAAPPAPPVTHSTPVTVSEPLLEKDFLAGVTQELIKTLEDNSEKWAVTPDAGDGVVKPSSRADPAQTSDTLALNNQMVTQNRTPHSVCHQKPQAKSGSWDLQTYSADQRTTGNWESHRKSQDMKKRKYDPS

INS1 = assay: beta cell apoptosis inhibitors, cytokine rescue, dose response, luminescence, retest (AID 449756); type: functional, cell-based; conditions: Rattus norvegicus;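 also: cell death triggered by IL-1 beta plus TNF-alpha plus IFN-gamma mixture; protective hits raise ATP signal compared with cytokine alone wells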

## CCOc1ccccc1NC(=O)c1cccc(NC(=O)c2ccccc2Cl)c1
[1]
  IC50: 2.63 µM (active)
[2]
  IC50: 0.084 µM (active)

## COc1ccc(CN(C)C[C@H]2OCCCC[C@H](C)Oc3ccc(NC(=O)Nc4ccc(C(F)(F)F)cc4)cc3C(=O)N([C@@H](C)CO)C[C@H]2C)cc1
[3]
  AC50: 14.4 µM (active)
[4]
  AC50: 22.4 µM (active)
Paired box protein Pax-8
  AC50: 5.98 µM (active)
[5]
  AC50: 22 µM (active)
[6]
  AC50: > 70 µM (inactive)
[7]
  AC50: 33.7 µM (active)
[8]
  AC50: 25.1 µM (active)
[9]
  AC50: > 70 µM (inactive)
[10]
  AC50: 34.4 µM (active)
[11]
  AC50: 40.5 µM (active)
[12]
  AC50: 31.6 µM (active)

## Cc1nnc(S)c2nn(-c3ccccc3F)c(C)c12
cells
  IC50: > 138 µM (inactive)
Major prion protein
  IC50: 8.71 µM (active)

## NC(=O)c1ccsc1NC(=O)c1ccc(N2CCCC2=O)cc1
[13]
  AC50: > 52 µM (inactive)
[14]
  AC50: 10.5 µM (active)
[15]
  AC50: 16.5 µM (active)
[16]
  AC50: 50.9 µM (active)
[17]
  AC50: > 52 µM (inactive)

## CCOC(=O)c1c(-c2ccccc2)oc2cc(Br)c(O)cc12
cells
  IC50: 60 µM (inactive)
Major prion protein
  IC50: 1.44 µM (active)

## O=C(/C=C/c1ccc(F)cc1)N1CCN(S(=O)(=O)Cc2ccccc2)CC1
[18]
  IC50: 0.0287 µM (active)

## CN1C(=O)c2ccccc2N(C)C1c1ccc(F)cc1 (stereo not drawn)
Kallikrein-7
  EC50: > 69.5 µM (inactive)

## COc1ccc(CCNc2c3ccccc3nc3ccccc23)cc1OC
[19]
  AC50: 7.87 µM (active)
Transthyretin
  EC50: > 167 µM (inactive)
[20]
  AC50: 6.38 µM (active)
INS1
  AC50: 4.5 µM (active)
